Laboratory results: patent US10509046B2, “Detection of indazole synthetic cannabinoids” (Randox Laboratories Limited, priority 2014, dated 2019)
Structures can show the parent of a compound that is named as a salt.

Columns and labels:
[1] = tested on: Antibody to AB-Pinaca-KLH (raised against immunogen 2 of Example 6); assay: Competitive ELISA characterising antibodies to AB-Pinaca-KLH with Tracer-1 (Example 9); type: binding; conditions: for % CR (percentage cross-reactivity): AB-Pinaca = 100.00; for IC50 (standard concentration which produces 50% inhibition of maximal signal): calibration curves 0-20 ng/ml
Experimental: The wells of an enhanced binding 96 well polystyrene microtitre plate were coated with IgG fraction of antiserum raised to AB-Pinaca-KLH (Immunogen 2 of Example 6), diluted in 10 mM Tris, pH8.5 (125 μl/well). The appropriate antibody coating dilution was determined using standard ELISA checkerboard techniques. The plate was incubated for 2 hours at 37° C., washed 4 times over 10 minutes with Tris buffered saline containing Tween 20 (TBST) and tapped dry. Standard solutions of AB-Pinaca pentanoic acid were prepared in TBST at 0, 0.31, 0.63, 1.25, 2.50, 5.0, 10.0 and 20.0 ng/ml, and 50 μl of each was added to the appropriate wells. 75 μl of Tracer-1 (Example 7) diluted in Tris buffer (pH 7.2) containing EDTA, D-mannitol, sucrose, thimerosal and BSA, was added to each of the wells. The appropriate dilution of tracer was also determined using standard ELISA checkerboard techniques. The plate was incubated at 25° C. for 1 hour. Excess unbound tracer was removed by washing 6 times over a 10-15 minute period with TBST and tapped dry. 125 μl of tetramethylbenzidine (TMB) substrate solution was added to each well of the plate that was then incubated for 20 minutes in the dark at room temperature. The reaction was terminated by addition of 125 μl 0.2 M H2SO4 to each well. The absorbance was measured at 450 nm using a microtitre plate reader. In order to determine the specificity of the competitive ELISAs, standard solutions of a range of structurally similar compounds were prepared in TBST. Using calibration curves generated from these compounds (0-20 ng/ml), the cross-reactivity was determined.

[2] = tested on: AB-PINACA antibody (raised against immunogen 2 of Example 6); assay: AB-PINACA ELISA, final validated kit with Tracer-2 (Example 10), specificity; type: binding; conditions: for % Cross-Reactivity: AB-PINACA N-Pentanoic acid = 100
Experimental: A microtitre plates was precoated with AB-PINACA antibody (raised against immunogen 2 of Example 6). Pinaca derivative (antigen), if present in the sample competes with the horseradish peroxidase labelled AB-PINACA (enzyme labelled antigen, herein Tracer-2 of Example 8) for a limited number of antibody sites on the microtitre plate. After incubation at room temperature to allow a competition reaction to take place, the microtitre plate was washed to remove excess reagents. The enzyme substrate ([…]) was added. After an incubation period to allow maximum colour development, the colour reaction was stopped by the addition of acid. This produces a colour change from blue to yellow, and the absorbances are read at 450 nm. A standard curve was then constructed to determine the Pinaca derivative's concentration in the sample.
All reagents were left to reach room temperature (+15 to +25° C.) prior to use. In order to minimise edge effects microtitre plate was sealed with an adhesive plate sealer.
The assay was performed in duplicate. The following layout was used for a test plate where each box represents 2 wells.
• a) The following was pipetted into the appropriate wells of the microtitre plate:
• b) The microtitre plate was gently tapped plate from side to side for a few seconds. • c) The microtitre plate was covered with a plate sealer before incubating for 30 minutes at room temperature (+15 to +25° C.) in the dark. • d) The plate was inverted and the liquid was tapped out. • e) The plate was washed 6 times with diluted wash buffer (ensuring all wells were filled), over a 10-15 minute period. After the final wash the liquid was discarded and the plate was tapped onto lint free tissue paper until completely dry. • f) Immediately after washing, 125 μL of the one shot substrate II solution was pipetted into each well using a multichannel pipette. The microtitre plate was gently tapped from side to side and incubated for (20±2 minutes) at room temperature (+15 to +25° C.) in the dark. • g) The colour reaction was stopped by the addition of 100 μL of stop solution per well. A colour change from blue to yellow should be evident. • h) The optical density was measured at 450 nm within 10 minutes of stopping the colour reaction. The use of a 630 nm filter is recommended as the reference wavelength, if available. Standard Curve and Interpretation of Results • a) The mean absorbance of the standards, controls and samples were calculated. • b) The absorbances of standards against log10 (standard concentration) were plotted. • c) The control and sample concentrations were read from the standard curve. • d) To obtain concentrations for urine samples in ng/mL, the results were multiplied by 3 to take into account the dilution factor. • e) To obtain concentrations for whole blood samples in ng/mL, the results were multiplied by 4 to take into account the dilution factor. • f) It is recommended that a 4 parameter curve fit method is used when generating the standard curve. Limits of Detection

SMILES	% CR (percentage cross-reactivity) [1]	IC50 (standard concentration which produces 50% inhibition of maximal signal) [1]	B/Bo (Percentage B/B0) ([1]; standard conc 0.31 ng/ml)	OD (absorbance at 450 nm) ([1]; standard conc 0.31 ng/ml)	B/Bo (Percentage B/B0) ([1]; standard conc 0.63 ng/ml)	OD (absorbance at 450 nm) ([1]; standard conc 0.63 ng/ml)	B/Bo (Percentage B/B0) ([1]; standard conc 1.25 ng/ml)	OD (absorbance at 450 nm) ([1]; standard conc 1.25 ng/ml)	B/Bo (Percentage B/B0) ([1]; standard conc 2.50 ng/ml)	OD (absorbance at 450 nm) ([1]; standard conc 2.50 ng/ml)	B/Bo (Percentage B/B0) ([1]; standard conc 5.00 ng/ml)	OD (absorbance at 450 nm) ([1]; standard conc 5.00 ng/ml)	B/Bo (Percentage B/B0) ([1]; standard conc 10.00 ng/ml)	OD (absorbance at 450 nm) ([1]; standard conc 10.00 ng/ml)	B/Bo (Percentage B/B0) ([1]; standard conc 20.00 ng/ml)	OD (absorbance at 450 nm) ([1]; standard conc 20.00 ng/ml)	% Cross-Reactivity [2]	Concentration of compounds that elicit a negative response at the indicated concentration [2]
CC(C)C(NC(=O)c1nn(CCCCCO)c2ccccc12)C(N)=O (stereo not shown) [1-(5-OHpentyl) AB-Pinaca, 1-(5-hydroxypentyl) AB-Pinaca]	124.80%	0.887 ng/mL	68.9%	1.415	56.6%	1.163	43.6%	0.896	33.6%	0.690	24.5%	0.504	17.3%	0.356	11.8%	0.242	83.8%	
CC(C)C(NC(=O)c1nn(CCCCCF)c2ccccc12)C(N)=O (stereo not shown) [5-fluoro AB-Pinaca, 5-fluoropentyl AB-Pinaca]	203.49%	0.544 ng/mL	60.2%	1.351	47.7%	1.070	36.5%	0.819	28.0%	0.629	20.6%	0.462	14.5%	0.326	10.1%	0.227	98.9%	
CC(C)C(NC(=O)c1nn(Cc2ccc(F)cc2)c2ccccc12)C(N)=O (stereo not shown) [AB-Fubinaca, N-(1-amino-3-methyl-1-oxobutan-2-yl)-1-(4-fluorobenzyl)-1H-indazole-3-carboxamide]	71.60%	1.546 ng/mL	72.0%	1.541	64.4%	1.379	52.3%	1.120	42.7%	0.915	32.4%	0.695	22.9%	0.491	15.7%	0.337	35.3%	
CC(C)C(NC(=O)c1nn(CCCCC(=O)O)c2ccccc12)C(N)=O (stereo not shown) [AB-Pinaca pentanoic acid]	64.25%	1.723 ng/mL	77.4%	1.698	69.7%	1.529	55.8%	1.223	42.2%	0.926	30.7%	0.673	21.2%	0.465	14.5%	0.317	100%	
CCCCCn1nc(C(=O)NC(C(N)=O)C(C)C)c2ccccc21 (stereo not shown) [AB-Pinaca, N-(1-amino-3-methyl-1-oxobutan-2-yl)-1-pentyl-1H-indazole-3-carboxamide]	100.00%	1.107 ng/mL	70.1%	1.532	60.7%	1.325	47.4%	1.036	35.6%	0.778	27.2%	0.593	18.5%	0.404	12.2%	0.267	52.4%	
CCCCCn1cc(C(=O)c2ccc(OC)cc2)c2ccccc21 [RCS-4]																	<1%	
COc1ccccc1CC(=O)c1cn(CCC2CCCCC2)c2ccccc12 [RCS-8]																		100 ng/mL
CNC(=C[N+](=O)[O-])NCCSCc1ccc(CN(C)C)o1 [Ranitidine HCl]																		10000 ng/mL
O=C(O)CCCCn1cc(C(=O)NC23CC4CC(CC(C4)C2)C3)c2ccccc21 [SDB-001 N-Pentanoic acid]																	<1%	
O=C(NC12CC3CC(CC(C3)C1)C2)c1cn(CCCCCF)c2ccccc12 [STS-135]																		100 ng/mL
O=C(c1cccc2ccccc12)c1nn(CCCCCF)c2ccccc12 [THJ 2201]																		100 ng/mL
CC1(C)C(C(=O)c2cn(CCCCC(=O)O)c3ccccc23)C1(C)C [UR-144 N-Pentanoic acid]																		100 ng/mL
CCCCCn1cc(C(=O)C2C(C)(C)C2(C)C)c2ccccc21 [UR-144]																		100 ng/mL
CC1(C)C(C(=O)c2cn(CCCCCF)c3ccccc23)C1(C)C [XLR-11]																		100 ng/mL
